Holding throughout (assay type): biochemical
Assay [1] deals with T1, PI3Kβ (Homo sapiens, UniProt P42338).
T1 construct: purchased Millipore Ltd (Billerica, Mass.)
Nature of the assay: In vitro determination of the PI3K enzyme inhibitory activity in the cell free assay (ADP-Glo Kinase Assay), PI3Kβ. As to conditions: ATP 100 μM, read-out: PI3K beta inhibition. The procedure: (§1) In vitro Determination of the PI3K Enzyme Inhibitory Activity in the Cell Free Assay
(§2) Human recombinant proteins PI3Kα, PI3Kβ, PI3Kγ and PI3Kδ were purchased from Millipore Ltd (Billerica, Mass.). Compounds were dissolved at 0.5 mM in DMSO and were tested at different concentrations for their activity against PI3Ks using the ADP-Glo™ Kinase Assay (Promega, Madison Wis.) according to the manufacturer's instructions.
(§3) Briefly, the kinase reactions were performed in 384-well white plates (Greiner Bio-One GmbH, Frickenhausen). Each well was loaded with 0.1 μl of test compounds and 2.5 μl of 2× reaction buffer (40 mM Tris pH7.5, 0.5 mM EGTA, 0.5 mM Na3VO4, 5 mM β-glycerophosphate, 0.1 mg/ml BSA, 1 mM DTT), containing 50 μM PI and PS substrates (L-α-phosphatidylinositol sodium salt and L-α-phosphatidyl-L-serine, Sigma-Aldrich, St. Louis Mo.) and the PI3K recombinant proteins (PI3Kγ 0.25 ng/μl, PI3Kδ 1 ng/μl, PI3Kα 0.125 ng/μl, PI3Kβ 1 ng/μl).
(§4) The reactions were started by adding 2.5 μl of 2×ATP solution to each well (final concentrations: PI3Kγ ATP 30 μM; PI3Kδ ATP 80 μM; PI3KαATP 50 μM; PI3Kβ ATP 100 μM) and incubated for 60 min at room temperature. Subsequently, each kinase reaction was incubated for 40 min with 5 μl ADP-Glo™ Reagent, allowing depletion of unconsumed ATP. Then, the Kinase Detection Reagent (10 μl) was added in each well to convert ADP to ATP and to allow the newly synthesized ATP to be measured using a luciferase/luciferin reaction. Following 60 min incubation, the luminescence signal was measured using a Wallac EnVision® multilabel reader (PerkinElmer, Waltham Mass.).
(§5) Curve fitting and IC50 calculation were carried out using a four-parameter logistic model in XLfit (IDBS, Guilford, UK) for Microsoft Excel (Microsoft, Redmont, Wash.).

Assay [2] addresses T2, PI3Kγ (Homo sapiens, UniProt P48736).
T2 construct: purchased Millipore Ltd (Billerica, Mass.)
Kind of assay: In vitro determination of the PI3K enzyme inhibitory activity in the cell free assay (ADP-Glo Kinase Assay), PI3Kγ. The settings on record: ATP 30 μM, read-out: PI3K gamma inhibition. The procedure: as §1, §2, §3, §4, §5
In general terms: ADP-Glo first removes unused ATP, then detects ADP through luciferase.

In assay [3] the target is T3, PI3Kδ (Homo sapiens, UniProt O00329).
T3 construct: purchased Millipore Ltd (Billerica, Mass.)
Kind of assay: In vitro determination of the PI3K enzyme inhibitory activity in the cell free assay (ADP-Glo Kinase Assay), PI3Kδ. As to conditions: ATP 80 μM, read-out: PI3K delta inhibition. On the procedure: as §1, §2, §3, §4, §5

Assay [4] has as its target T4, PI3Kα (Homo sapiens, UniProt P42336).
T4 construct: purchased Millipore Ltd (Billerica, Mass.)
Kind of assay: In vitro determination of the PI3K enzyme inhibitory activity in the cell free assay (ADP-Glo Kinase Assay), PI3Kα. As to conditions: ATP 50 μM, read-out: PI3K alpha inhibition. On the procedure: as §1, §2, §3, §4, §5

These results are taken from patent US9527869B2, “Indolizine derivatives as phoshoinositide 3-kinases inhibitors” (CHIESI FARMACEUTICI S.P.A., priority 2014, dated 2016).

T1 sequence (P42338 whole entry): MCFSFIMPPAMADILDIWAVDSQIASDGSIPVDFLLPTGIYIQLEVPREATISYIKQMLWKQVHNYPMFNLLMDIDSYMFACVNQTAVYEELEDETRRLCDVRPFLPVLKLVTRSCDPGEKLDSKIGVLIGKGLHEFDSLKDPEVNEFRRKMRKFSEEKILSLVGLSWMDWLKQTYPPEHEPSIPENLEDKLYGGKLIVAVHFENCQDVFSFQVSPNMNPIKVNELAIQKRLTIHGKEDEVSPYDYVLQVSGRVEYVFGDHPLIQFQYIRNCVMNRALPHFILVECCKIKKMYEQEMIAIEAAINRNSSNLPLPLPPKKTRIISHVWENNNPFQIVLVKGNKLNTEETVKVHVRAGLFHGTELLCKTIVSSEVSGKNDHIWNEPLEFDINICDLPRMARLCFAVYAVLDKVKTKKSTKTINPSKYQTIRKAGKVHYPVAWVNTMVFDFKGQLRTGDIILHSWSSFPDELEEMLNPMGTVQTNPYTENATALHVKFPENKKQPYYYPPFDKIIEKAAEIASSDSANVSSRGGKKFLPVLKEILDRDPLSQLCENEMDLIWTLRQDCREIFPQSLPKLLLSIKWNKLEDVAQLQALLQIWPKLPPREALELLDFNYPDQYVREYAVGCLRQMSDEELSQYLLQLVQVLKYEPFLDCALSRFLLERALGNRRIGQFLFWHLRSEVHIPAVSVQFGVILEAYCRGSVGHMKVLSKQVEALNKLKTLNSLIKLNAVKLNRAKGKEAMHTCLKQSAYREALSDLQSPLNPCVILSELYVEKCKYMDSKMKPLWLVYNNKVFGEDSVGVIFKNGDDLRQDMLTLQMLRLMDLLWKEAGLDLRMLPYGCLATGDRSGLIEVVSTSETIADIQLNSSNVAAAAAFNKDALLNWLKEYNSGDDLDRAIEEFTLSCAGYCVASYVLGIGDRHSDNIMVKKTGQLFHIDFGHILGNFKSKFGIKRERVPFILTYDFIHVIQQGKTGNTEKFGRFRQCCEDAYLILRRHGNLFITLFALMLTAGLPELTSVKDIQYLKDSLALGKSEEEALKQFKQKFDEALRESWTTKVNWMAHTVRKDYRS
T1 sequence (P27986 whole entry partner): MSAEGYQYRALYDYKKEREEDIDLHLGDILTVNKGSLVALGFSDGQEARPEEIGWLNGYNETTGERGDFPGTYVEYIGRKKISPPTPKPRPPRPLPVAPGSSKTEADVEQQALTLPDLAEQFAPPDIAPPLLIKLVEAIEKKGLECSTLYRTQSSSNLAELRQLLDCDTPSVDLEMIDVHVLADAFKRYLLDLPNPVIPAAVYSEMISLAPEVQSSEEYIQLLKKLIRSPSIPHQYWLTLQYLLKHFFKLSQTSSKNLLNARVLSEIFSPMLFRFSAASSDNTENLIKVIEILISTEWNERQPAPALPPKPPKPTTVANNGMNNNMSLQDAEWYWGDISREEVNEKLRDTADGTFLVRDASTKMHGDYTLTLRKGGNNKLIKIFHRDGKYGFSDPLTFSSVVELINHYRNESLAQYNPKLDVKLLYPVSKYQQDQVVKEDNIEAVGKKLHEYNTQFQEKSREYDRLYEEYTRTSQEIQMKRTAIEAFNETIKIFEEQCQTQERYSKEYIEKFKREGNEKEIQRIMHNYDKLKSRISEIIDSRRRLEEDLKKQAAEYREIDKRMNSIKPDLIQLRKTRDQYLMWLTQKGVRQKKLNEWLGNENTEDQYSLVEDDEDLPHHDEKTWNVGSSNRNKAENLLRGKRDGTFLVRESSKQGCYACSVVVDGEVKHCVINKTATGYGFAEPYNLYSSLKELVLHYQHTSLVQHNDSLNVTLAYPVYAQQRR
T2 sequence (P48736 whole entry): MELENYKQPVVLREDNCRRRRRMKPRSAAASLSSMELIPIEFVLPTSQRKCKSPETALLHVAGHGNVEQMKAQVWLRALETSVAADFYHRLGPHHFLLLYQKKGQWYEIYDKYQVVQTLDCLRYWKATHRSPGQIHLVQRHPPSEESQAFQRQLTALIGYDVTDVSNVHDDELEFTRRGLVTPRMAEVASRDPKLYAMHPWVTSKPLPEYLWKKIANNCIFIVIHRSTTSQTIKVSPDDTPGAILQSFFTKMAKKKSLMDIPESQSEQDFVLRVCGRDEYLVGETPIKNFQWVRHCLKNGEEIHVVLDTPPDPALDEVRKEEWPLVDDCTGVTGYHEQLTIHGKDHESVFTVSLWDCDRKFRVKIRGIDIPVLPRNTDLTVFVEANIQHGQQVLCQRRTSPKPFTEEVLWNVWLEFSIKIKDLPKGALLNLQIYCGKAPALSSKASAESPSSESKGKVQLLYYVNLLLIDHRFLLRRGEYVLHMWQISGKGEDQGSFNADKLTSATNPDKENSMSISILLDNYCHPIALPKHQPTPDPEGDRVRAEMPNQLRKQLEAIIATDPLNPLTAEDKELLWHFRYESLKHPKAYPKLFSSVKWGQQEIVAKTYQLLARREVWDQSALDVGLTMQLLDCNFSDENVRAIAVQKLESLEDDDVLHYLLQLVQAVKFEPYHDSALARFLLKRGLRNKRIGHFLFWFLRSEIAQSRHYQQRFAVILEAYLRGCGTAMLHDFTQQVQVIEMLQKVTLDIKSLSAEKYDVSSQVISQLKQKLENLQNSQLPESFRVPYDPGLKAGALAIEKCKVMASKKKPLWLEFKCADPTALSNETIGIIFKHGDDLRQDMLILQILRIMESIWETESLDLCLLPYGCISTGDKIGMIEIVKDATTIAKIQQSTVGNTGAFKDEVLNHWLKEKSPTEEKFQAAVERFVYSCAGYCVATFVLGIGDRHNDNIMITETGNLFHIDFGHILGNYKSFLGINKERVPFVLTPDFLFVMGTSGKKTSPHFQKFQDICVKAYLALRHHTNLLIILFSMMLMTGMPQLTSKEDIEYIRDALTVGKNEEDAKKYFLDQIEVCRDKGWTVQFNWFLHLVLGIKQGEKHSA
T4 sequence (P42336 whole entry): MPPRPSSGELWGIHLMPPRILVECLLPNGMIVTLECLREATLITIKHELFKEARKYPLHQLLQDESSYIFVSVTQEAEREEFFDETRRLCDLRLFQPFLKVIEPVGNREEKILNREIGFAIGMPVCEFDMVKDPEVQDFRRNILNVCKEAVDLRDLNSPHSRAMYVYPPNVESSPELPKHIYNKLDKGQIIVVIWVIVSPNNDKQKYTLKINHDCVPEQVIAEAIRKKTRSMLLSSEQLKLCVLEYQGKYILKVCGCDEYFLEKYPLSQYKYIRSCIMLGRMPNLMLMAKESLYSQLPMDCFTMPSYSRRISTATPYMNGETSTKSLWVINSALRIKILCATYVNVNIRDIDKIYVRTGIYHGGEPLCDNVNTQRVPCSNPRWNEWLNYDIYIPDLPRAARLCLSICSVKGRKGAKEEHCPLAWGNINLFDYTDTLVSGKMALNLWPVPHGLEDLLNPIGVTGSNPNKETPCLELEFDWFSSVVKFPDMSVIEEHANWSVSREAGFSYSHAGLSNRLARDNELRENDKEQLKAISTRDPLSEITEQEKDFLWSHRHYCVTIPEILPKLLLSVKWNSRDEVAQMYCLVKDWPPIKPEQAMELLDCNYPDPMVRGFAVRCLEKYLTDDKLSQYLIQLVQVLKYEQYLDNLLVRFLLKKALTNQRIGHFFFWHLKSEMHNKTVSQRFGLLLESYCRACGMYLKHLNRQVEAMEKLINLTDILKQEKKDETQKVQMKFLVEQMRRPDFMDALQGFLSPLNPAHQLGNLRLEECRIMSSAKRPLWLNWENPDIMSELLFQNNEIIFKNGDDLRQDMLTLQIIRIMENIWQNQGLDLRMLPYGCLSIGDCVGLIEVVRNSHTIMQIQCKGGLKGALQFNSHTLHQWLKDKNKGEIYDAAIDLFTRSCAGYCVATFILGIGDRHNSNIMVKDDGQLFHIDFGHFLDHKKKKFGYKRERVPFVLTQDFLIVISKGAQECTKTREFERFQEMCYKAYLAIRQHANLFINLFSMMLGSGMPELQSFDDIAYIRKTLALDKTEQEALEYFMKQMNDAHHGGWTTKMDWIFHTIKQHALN
T4 sequence (P27986 whole entry partner): as the sequence (P27986 whole entry partner) above
T3 sequence (O00329 whole entry): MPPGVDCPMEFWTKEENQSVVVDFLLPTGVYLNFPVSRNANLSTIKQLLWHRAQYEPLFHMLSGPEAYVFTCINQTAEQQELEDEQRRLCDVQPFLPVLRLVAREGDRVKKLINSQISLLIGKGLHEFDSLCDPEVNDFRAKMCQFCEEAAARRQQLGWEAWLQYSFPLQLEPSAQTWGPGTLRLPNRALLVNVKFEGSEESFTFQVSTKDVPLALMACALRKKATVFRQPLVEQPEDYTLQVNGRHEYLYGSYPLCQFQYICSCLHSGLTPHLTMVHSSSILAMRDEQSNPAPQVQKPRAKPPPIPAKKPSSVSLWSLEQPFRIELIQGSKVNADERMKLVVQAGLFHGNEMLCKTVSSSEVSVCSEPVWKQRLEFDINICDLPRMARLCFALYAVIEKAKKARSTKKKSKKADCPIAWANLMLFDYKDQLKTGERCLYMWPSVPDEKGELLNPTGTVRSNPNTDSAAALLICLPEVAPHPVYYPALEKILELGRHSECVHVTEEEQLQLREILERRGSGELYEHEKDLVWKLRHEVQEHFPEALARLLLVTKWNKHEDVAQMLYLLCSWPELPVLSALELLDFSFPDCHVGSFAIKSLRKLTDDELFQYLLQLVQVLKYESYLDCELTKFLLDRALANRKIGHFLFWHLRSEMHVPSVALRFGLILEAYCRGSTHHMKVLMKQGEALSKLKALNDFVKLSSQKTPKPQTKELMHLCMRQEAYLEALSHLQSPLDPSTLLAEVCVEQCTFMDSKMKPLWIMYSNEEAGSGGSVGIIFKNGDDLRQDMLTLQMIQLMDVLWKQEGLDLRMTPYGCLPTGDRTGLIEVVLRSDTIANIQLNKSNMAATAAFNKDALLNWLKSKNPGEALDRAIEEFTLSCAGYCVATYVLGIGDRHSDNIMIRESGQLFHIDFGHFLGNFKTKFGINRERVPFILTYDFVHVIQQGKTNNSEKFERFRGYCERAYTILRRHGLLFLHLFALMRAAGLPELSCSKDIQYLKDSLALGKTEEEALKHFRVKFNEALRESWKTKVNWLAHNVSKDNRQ
T3 sequence (P27986 whole entry partner): as the sequence (P27986 whole entry partner) above

On to `Cc1ccccc1-c1c(CNc2ncnc3[nH]cnc23)cn2ccccc12` [Example 19, N-{[1-(2-methylphenyl)indolizin-2-yl]methyl}-9H-purin-6-amine], for which the IC50 in assay [1], in assay [2], in assay [3] and in assay [4] was greater than 1000 nM in each case.

Take `c1ccc(-c2c(CNc3ncnc4[nH]cnc34)cn3ccccc23)nc1` [Example 20, N-{[1-(pyridin-2-yl)indolizin-2-yl]methyl}-9H-purin-6-amine]: the IC50 is greater than 1000 nM in assay [1], greater than 1000 nM in assay [2], 10 to 1000 nM in assay [3] and greater than 1000 nM in assay [4].

For `c1ccn2cc(CNc3ncnc4[nH]cnc34)cc2c1` [Example 21, N-(indolizin-2-ylmethyl)-9H-purin-6-amine], the IC50 in assay [1] was 10 to 1000 nM; in assay [2], greater than 1000 nM; in assay [3] it was 10 to 1000 nM; in assay [4], greater than 1000 nM.

Consider `N#Cc1c(N)ncnc1NCc1cc2ccccn2c1-c1ccccc1` [Example 22, 4-amino-6-{[(3-phenylindolizin-2-yl)methyl]amino}pyrimidine-5-carbonitrile], for which the IC50 in assay [1] was greater than 1000 nM; in assay [2], greater than 1000 nM; in assay [3], 10 to 1000 nM; in assay [4] it was greater than 1000 nM.

On to `N#Cc1c(N)ncnc1NCc1cc2ccccn2c1-c1ccccn1` [Example 23, 4-amino-6-({[3-(pyridin-2-yl)indolizin-2-yl]methyl}amino)pyrimidine-5-carbonitrile], for which the IC50 in assay [1] was greater than 1000 nM; in assay [2] it was greater than 1000 nM; in assay [3], 10 to 1000 nM; in assay [4] it was greater than 1000 nM.

For the compound `N#Cc1c(N)ncnc1NCc1cc2ccccn2c1-c1cccc(F)c1` [Example 24, 4-amino-6-({[3-(3-fluorophenyl)indolizin-2-yl]methyl}amino)pyrimidine-5-carbonitrile], the IC50 in assay [1] was greater than 1000 nM; in assay [2], greater than 1000 nM; in assay [3], 10 to 1000 nM; in assay [4] it was greater than 1000 nM.

On to `N#Cc1c(N)ncnc1NCc1cc2ccccn2c1-c1ccccc1F` [Example 25, 4-amino-6-({[3-(2-fluorophenyl)indolizin-2-yl]methyl}amino)pyrimidine-5-carbonitrile], for which the IC50 in assay [1] is greater than 1000 nM; in assay [2], greater than 1000 nM; in assay [3], 10 to 1000 nM; in assay [4], greater than 1000 nM.

Take `Cc1ccccc1-c1c(CNc2ncnc(N)c2C#N)cc2ccccn12` [Example 26, 4-amino-6-({[3-(2-methylphenyl)indolizin-2-yl]methyl}amino)pyrimidine-5-carbonitrile]: the IC50 in assay [1] is greater than 1000 nM; in assay [2], greater than 1000 nM; in assay [3], 10 to 1000 nM; in assay [4], greater than 1000 nM.

Take `N#Cc1c(N)ncnc1NCc1cn2ccccc2c1-c1ccccc1` [Example 27, 4-amino-6-{[(1-phenylindolizin-2-yl)methyl]amino}pyrimidine-5-carbonitrile]: the IC50 in assay [1], in assay [2], in assay [3] and in assay [4] was greater than 1000 nM in each case.

For `N#Cc1c(N)ncnc1NCc1cn2ccccc2c1-c1cccc(F)c1` [Example 28, 4-amino-6-({[1-(3-fluorophenyl)indolizin-2-yl]methyl}amino)pyrimidine-5-carbonitrile], the IC50 in assay [1] is greater than 1000 nM; in assay [2], greater than 1000 nM; in assay [3], 10 to 1000 nM; in assay [4] it was greater than 1000 nM.

For `Cc1ccccc1-c1c(CNc2ncnc(N)c2C#N)cn2ccccc12` [Example 29, 4-amino-6-({[1-(2-methylphenyl)indolizin-2-yl]methyl}amino)pyrimidine-5-carbonitrile], the IC50 in assay [1] is greater than 1000 nM; in assay [2], greater than 1000 nM; in assay [3], 10 to 1000 nM; in assay [4], greater than 1000 nM.

On to `N#Cc1c(N)ncnc1NCc1cn2ccccc2c1-c1ccccn1` [Example 30, 4-amino-6-({[1-(pyridin-2-yl)indolizin-2-yl]methyl}amino)pyrimidine-5-carbonitrile], for which the IC50 in assay [1] was greater than 1000 nM; in assay [2], greater than 1000 nM; in assay [3], 10 to 1000 nM; in assay [4] it was greater than 1000 nM.

Regarding `N#Cc1c(N)ncnc1NCc1cc2ccccn2c1` [Example 31, 4-amino-6-[(indolizin-2-ylmethyl)amino]pyrimidine-5-carbonitrile], the IC50 in assay [1] is greater than 1000 nM; in assay [2], greater than 1000 nM; in assay [3] it was 10 to 1000 nM; in assay [4], greater than 1000 nM.

On to `CC(Nc1ncnc(N)c1C#N)c1cc2ccccn2c1-c1ccccc1` (stereo not drawn) [Example 32, 4-amino-6-{[1-(3-phenylindolizin-2-yl)ethyl]amino}pyrimidine-5-carbonitrile], for which the IC50 in assay [1] was greater than 1000 nM; in assay [2], greater than 1000 nM; in assay [3] it was 10 to 1000 nM; in assay [4], greater than 1000 nM.

`CC(Nc1ncnc(N)c1C#N)c1cc2ccccn2c1-c1ccccn1` (stereo not drawn) [Example 33, 4-amino-6-({1-[3-(pyridin-2-yl)indolizin-2-yl]ethyl}amino)pyrimidine-5-carbonitrile]: the IC50 was 10 to 1000 nM in assay [1], greater than 1000 nM in assay [2], 10 to 1000 nM in assay [3] and greater than 1000 nM in assay [4].

On to `CC(Nc1ncnc(N)c1C#N)c1cc2ccccn2c1-c1cccnc1` (stereo not drawn) [Example 34, 4-amino-6-({1-[3-(pyridin-3-yl)indolizin-2-yl]ethyl}amino)pyrimidine-5-carbonitrile], for which the IC50 is 10 to 1000 nM in assay [1], 10 to 1000 nM in assay [2], 10 to 1000 nM in assay [3] and greater than 1000 nM in assay [4].

Take `CC(Nc1ncnc(N)c1C#N)c1cc2ccccn2c1-c1cnccn1` (stereo not drawn) [Example 35, 4-amino-6-({1-[3-(pyrazin-2-yl)indolizin-2-yl]ethyl}amino)pyrimidine-5-carbonitrile]: the IC50 in assay [1] is 10 to 1000 nM; in assay [2] it was greater than 1000 nM; in assay [3], 10 to 1000 nM; in assay [4], greater than 1000 nM.

Turning to `CC(Nc1ncnc(N)c1C#N)c1cc2ccccn2c1-c1ccncc1` (stereo not drawn) [Example 36, 4-amino-6-({1-[3-(pyridin-4-yl)indolizin-2-yl]ethyl}amino)pyrimidine-5-carbonitrile], the IC50 in assay [1] was 10 to 1000 nM; in assay [2] it was 10 to 1000 nM; in assay [3], 10 to 1000 nM; in assay [4], greater than 1000 nM.

Take `CC(Nc1ncnc(N)c1C#N)c1cc2ccccn2c1-c1cccs1` (stereo not drawn) [Example 37, 4-amino-6-({1-[3-(thiophen-2-yl)indolizin-2-yl]ethyl}amino)pyrimidine-5-carbonitrile]: the IC50 in assay [1] is greater than 1000 nM; in assay [2], greater than 1000 nM; in assay [3] it was 10 to 1000 nM; in assay [4] it was greater than 1000 nM.

Turning to `CC(Nc1ncnc(N)c1C#N)c1cc2ccccn2c1-c1ccsc1` (stereo not drawn) [Example 38, 4-amino-6-({1-[3-(thiophen-3-yl)indolizin-2-yl]ethyl}amino)pyrimidine-5-carbonitrile], the IC50 in assay [1] was greater than 1000 nM; in assay [2], greater than 1000 nM; in assay [3], 10 to 1000 nM; in assay [4] it was greater than 1000 nM.

Regarding `CC(Nc1ncnc(N)c1C#N)c1cc2c(F)cccn2c1-c1ccccn1` (stereo not drawn) [Example 39, 4-amino-6-({1-[8-fluoro-3-(pyridin-2-yl)indolizin-2-yl]ethyl}amino)pyrimidine-5-carbonitrile], the IC50 in assay [1] is 10 to 1000 nM; in assay [2], greater than 1000 nM; in assay [3] it was less than 10 nM; in assay [4], greater than 1000 nM.
